{"source": "paper PMC4222822", "about": "“Discovery and Characterization of a Potent and Selective Inhibitor of Aedes aegypti Inward Rectifier Potassium Channels” (PLoS ONE, 2014)", "key": {"AeKir1": {"target": "AeKir1 (Aedes aegypti, UniProt L0EQS9)", "sequence (L0EQS9 entry or part of it)": "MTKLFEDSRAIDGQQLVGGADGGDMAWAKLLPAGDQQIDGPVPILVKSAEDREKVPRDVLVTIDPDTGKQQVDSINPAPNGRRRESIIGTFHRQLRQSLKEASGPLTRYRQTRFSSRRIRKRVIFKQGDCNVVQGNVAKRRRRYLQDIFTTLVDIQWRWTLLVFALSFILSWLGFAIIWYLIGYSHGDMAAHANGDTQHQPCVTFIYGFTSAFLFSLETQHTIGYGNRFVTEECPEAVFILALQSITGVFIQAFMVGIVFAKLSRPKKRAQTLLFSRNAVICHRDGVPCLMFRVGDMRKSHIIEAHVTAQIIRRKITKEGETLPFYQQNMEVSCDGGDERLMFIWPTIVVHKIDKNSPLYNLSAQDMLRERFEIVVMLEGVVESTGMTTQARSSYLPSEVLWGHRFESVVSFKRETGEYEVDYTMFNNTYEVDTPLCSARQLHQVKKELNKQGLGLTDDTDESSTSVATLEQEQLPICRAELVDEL", "experiment": "Whole-cell patch clamp electrophysiology of T-REx-HEK293-AeKir1 cells", "assay_type": "cell-based", "procedure": "T-REx-HEK293-AeKir1 cells were voltage clamped in the whole-cell configuration of the patch clamp technique after overnight induction with tetracycline (1 µg/ml) essentially as described earlier. Briefly, patch electrodes were pulled from silanized 1.5 mm outer diameter borosilicate microhematocrit tubes using a Narishige PC-10 two-stage puller. Electrode resistance ranged from 3.5 to 5.5 MΩ when filled with the following intracellular solution (in mM): 135 KCl, 2 MgCl2, 1 EGTA, 10 HEPES free acid, 2 Na2ATP (Roche, Indianapolis, IN), pH 7.3, 275 mOsm. The standard bath solution contained (in mM): 135 NaCl, 5 KCl, 2 CaCl2, 1 MgCl2, 5 glucose, 10 HEPES free acid, pH 7.4, 290 mOsm. Whole-cell currents were recorded under voltage-clamp conditions using an Axopatch 200B amplifier (Molecular Devices, Sunnyvale, CA). Electrical connections to the amplifier were made using Ag/AgCl wires and 3 M KCl/agar bridges. Electrophysiological data were collected at 5 kHz and filtered at 1 kHz. Data acquisition and analysis were performed using pClamp 9.2 software (Axon Instruments). All recordings were made at room temperature (20–23°C)."}, "Kir7.1(M125R)": {"target": "T1, Kir7.1(M125R) (Homo sapiens, UniProt O60928, M125R)", "T1 construct": "expressed in transfected cells", "T1 sequence (O60928 1-360 M125R)": "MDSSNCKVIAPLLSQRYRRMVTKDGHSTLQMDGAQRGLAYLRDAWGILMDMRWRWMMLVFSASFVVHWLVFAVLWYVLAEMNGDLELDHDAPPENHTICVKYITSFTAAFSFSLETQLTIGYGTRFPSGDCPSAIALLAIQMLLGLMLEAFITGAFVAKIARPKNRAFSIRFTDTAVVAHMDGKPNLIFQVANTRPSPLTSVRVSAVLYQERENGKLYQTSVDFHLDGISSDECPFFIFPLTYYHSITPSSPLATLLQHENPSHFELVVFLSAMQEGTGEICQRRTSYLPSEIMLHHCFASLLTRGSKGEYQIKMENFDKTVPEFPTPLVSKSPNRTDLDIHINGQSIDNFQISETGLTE", "experiment": "Tl+ flux selectivity assay, Kir7.1(M125R)", "assay_type": "cell-based", "conditions": "n = 2 independent experiments in triplicate, read-out: Inhibition of Tl+ flux (IC50)"}, "melatonin MT1 receptor": {"target": "melatonin MT1 receptor (Homo sapiens, UniProt P48039)", "sequence (P48039 whole entry)": "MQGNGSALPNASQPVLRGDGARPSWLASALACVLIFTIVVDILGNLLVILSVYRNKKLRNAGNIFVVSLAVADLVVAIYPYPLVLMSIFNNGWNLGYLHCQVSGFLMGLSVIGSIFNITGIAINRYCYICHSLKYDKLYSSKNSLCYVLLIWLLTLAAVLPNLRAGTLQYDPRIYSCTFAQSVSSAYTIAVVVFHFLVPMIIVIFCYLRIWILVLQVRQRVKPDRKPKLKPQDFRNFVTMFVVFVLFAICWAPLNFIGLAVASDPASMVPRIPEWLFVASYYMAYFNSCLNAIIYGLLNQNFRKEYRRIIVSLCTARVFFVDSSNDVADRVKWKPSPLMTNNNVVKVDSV", "experiment": "Radioligand displacement assay, melatonin MT1 receptor", "assay_type": "binding, mammalian", "conditions": "10 µM VU625"}, "[1]": {"system": "adult female mosquitoes (A. aegypti)", "experiment": "Mosquito toxicology experiments (hemolymph injection)", "assay_type": "in vivo, Aedes aegypti", "procedure": "(§1) The Aedes aegypti mosquito colony used in the present study is identical to that described previously. As before, only adult female mosquitoes 3–10 days post emergence were utilized for experiments.\nAdult female mosquitoes for injection were anesthetized on ice and impaled through the metapleuron using a pulled-glass capillary attached to a nanoliter injector (Nanoject II, Drummond Scientific Company, Broomall, PA). Each mosquito received a single hemolymph injection of 69 nL of solution. The injection solution consisted of a potassium-rich phosphate buffered saline (K^+-PBS), 15% DMSO, 1% β-cyclodextrin, 0.1% Solutol, and a concentration of VU625 to deliver the doses indicated. In experiments where probenecid was used, water-soluble probenecid (Biotium, Hayward CA) was included in the injection solution at 50 mM, thereby providing a dose of 3.4 nmol per mosquito.\nThe K^+-PBS solution consisted of the following in mM: 92.2 NaCl, 47.5 KCl, 10 Na2HPO4, and 2 KH2PO4 (pH 7.5). A total of 10 mosquitoes were injected for a given treatment or dose, and then were placed into small cages within a rearing chamber (28°C, 80% relative humidity, 12∶12 light:dark) and allowed free access to a solution of 10% sucrose. […] For each treatment, 3–7 replicates of 10 mosquitoes each were performed.\n(§2) Prism (GraphPad Software) was used to generate a dose-response curve for the toxicity of VU625; the doses (x-axis) were first log transformed and then the mortality data was normalized using Prism, where the smallest value and largest values in a data set equal ‘0%’ and ‘100%’, respectively. The data were then fitted using a ‘biphasic’ algorithm (<100 constraint) to calculate potencies (ED25 and ED75 values). To compare 1) the toxic effects among the vehicle, probenecid, VU625, and VU625 + probenecid treatments, and 2) the excretory capacity among the vehicle, probenecid, VU625, and VU625 + probenecid treatments, one-way ANOVAs were performed with Newman-Keuls posttests."}, "[2]": {"system": "adult female mosquitoes (A. aegypti)", "experiment": "Mosquito excretion experiments (excretory capacity)", "assay_type": "in vivo, Aedes aegypti", "conditions": "1 h after injection, mean ±SEM", "procedure": "as §1\nThe excretory capacity of mosquitoes was measured as described. In brief, after anesthetizing mosquitoes on ice, their hemolymph was injected as described above with 900 nL of a K^+-PBS vehicle containing 1.15% DMSO, 0.077% β-cyclodextrin, and 0.008% Solutol, or the vehicle containing VU625 (0.77 mM) to deliver a dose of 690 pmol of VU625 per mosquito. In experiments where probenecid was used, the vehicle was supplemented with water- soluble probenecid […] to deliver a dose of 3.4 nmol of probenecid per mosquito. After injection, the mosquitoes were placed immediately in a graduated, packed-cell volume tube (MidSci, St. Louis, MO; 5 mosquitoes per tube) and held at 28°C. The volume of urine excreted at 60 min post injection was measured as described previously, and all mosquitoes were confirmed to be alive at the end of 60 min period. For each treatment, 6–18 independent trials of 5 mosquitoes per treatment were performed.\nas §2"}, "[3]": {"conditions": "co-injected with probenecid 3.4 nmol per mosquito, mortality at 24 h post-injection, biphasic fit"}}}
{"smiles": "CCC(=O)N1c2ccc(S(=O)(=O)Nc3cccc(OC)c3)cc2CC1C", "note": "(centres unmarked) [VU625, N-(3-methoxyphenyl)-2-methyl-1-propionylindoline-5-sulfonamide]", "values": [{"measurement": "Hill coefficient (nH)", "setting": "AeKir1; 95% CI: 0.8–1.3", "result": 1.02}, {"measurement": "IC50", "setting": "AeKir1; T-REx-HEK293 cells, 95% CI: 75.4–124.2 nM, n = 4–6", "result": 96.8, "unit": "nM"}, {"measurement": "IC50", "setting": "Kir7.1(M125R)", "result": "> 30000", "unit": "nM"}, {"measurement": "radioligand displacement", "setting": "melatonin MT1 receptor", "result": 56, "unit": "%"}, {"measurement": "effect on mosquito behavior or survival", "setting": "[1]; 690 pmol per mosquito, hemolymph injection, alone, 24 h", "result": "no significant effects on mosquito behavior or survival within 24 h"}, {"measurement": "toxicity on co-injection with probenecid", "setting": "[1]; VU625 690 pmol + probenecid 3.4 nmol per mosquito, 24 h, vs VU625 or probenecid alone", "result": "significantly increases the toxicity of VU625 within 24 h"}, {"measurement": "ED25 (mortality)", "setting": "[1]; [3]", "result": 9.96, "unit": "pmol"}, {"measurement": "ED75 (mortality)", "setting": "[1]; [3]", "result": 502, "unit": "pmol"}, {"measurement": "efficacy of VU625 with PBO", "setting": "[1]; preliminary experiments with PBO", "result": "did not improve the efficacy"}, {"measurement": "excretory capacity (urine excreted)", "setting": "[2]; VU625 690 pmol + probenecid 3.4 nmol per mosquito in 900 nL vehicle", "result": "236.7±24.53", "unit": "nL/female"}, {"measurement": "excretory capacity (urine excreted)", "setting": "[2]; VU625 690 pmol per mosquito in 900 nL vehicle", "result": "583.3±29.52", "unit": "nL/female"}]}
